In PubChem BioAssay (NCI):
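96-well plates; 48 h exposure; 5 concentrations. Endpoints by linear interpolation between flanking doses. Not reached: highest tested concentration assigned. GI50: concentration for 50% inhibition of growth. The concentration for full growth arrest is given as TGI.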

How the values were obtained:
Assay in all cases: inhibition of tumour cell growth, NCI panel, 48 h
NCI-H226 lung = tested on: NCI-H226 lung
LOX IMVI melanoma = tested on: LOX IMVI melanoma
SNB-75 CNS = tested on: SNB-75 CNS
SF-268 CNS = tested on: SF-268 CNS
SK-MEL-28 melanoma = tested on: SK-MEL-28 melanoma
KM12 colon = tested on: KM12 colon
SNB-19 CNS = tested on: SNB-19 CNS
SF-295 CNS = tested on: SF-295 CNS
SN12C renal = tested on: SN12C renal
HS 578T breast = tested on: HS 578T breast

Structure (SMILES) | GI50 (NCI-H226 lung) | TGI (NCI-H226 lung) | GI50 (LOX IMVI melanoma) | TGI (LOX IMVI melanoma) | GI50 (SNB-75 CNS) | TGI (SNB-75 CNS) | GI50 (SF-268 CNS) | TGI (SF-268 CNS) | GI50 (SK-MEL-28 melanoma) | TGI (SK-MEL-28 melanoma) | GI50 (KM12 colon) | TGI (KM12 colon) | GI50 (SNB-19 CNS) | TGI (SNB-19 CNS) | GI50 (SF-295 CNS) | TGI (SF-295 CNS) | GI50 (SN12C renal) | TGI (SN12C renal) | GI50 (HS 578T breast) | TGI (HS 578T breast)
CCCCCCCCn1ccc2cc(NC(=O)Cn3cc(CN4CCCCCC4)nn3)ccc21 | 2.23 µM | 5.07 µM | 1.7 µM | 3.17 µM | 1.55 µM | 2.91 µM | 1.8 µM | 3.37 µM | 1.82 µM | 3.3 µM | 1.73 µM | 3.27 µM | 1.8 µM | 3.46 µM | 1.74 µM | 3.33 µM | 1.67 µM | 3.26 µM | 1.91 µM | 4.16 µM
C[C@]12CCc3sc(Nc4ccc(OC(F)(F)F)cc4)nc3C1=CC[C@@H]1[C@@H]2CC[C@]2(C)C(=O)CC[C@@H]12 | 6.37 µM | 44.1 µM | 1.74 µM | 3.18 µM | 1.88 µM | 6.23 µM | 3.01 µM | 12.3 µM | 1.88 µM | 7.98 µM | 3.56 µM | 15 µM | 2.12 µM | 9.93 µM | 0.7 µM | 2.44 µM | 3.44 µM | 16.1 µM | 1.48 µM | 5.22 µM
CNC(=O)OCc1c(COC(=O)NC)c(-c2ccc(-c3ccccc3)cc2)n(C)c1C | – | 32.5 µM | – | 11.7 µM | – | 10.6 µM | – | 5.32 µM | – | 28.7 µM | – | 24.9 µM | – | 16.9 µM | – | 10.8 µM | – | 3.8 µM | – | > 68.2 µM
COc1ccc2c(c1)NC1=C(C(=O)OC1)C2c1cc(OC)c(OC)c(OC)c1 (stereo not drawn) | < 0.01 µM | > 100 µM | < 0.01 µM | > 100 µM | < 0.01 µM | 40 µM | < 0.01 µM | > 100 µM | – | > 100 µM | < 0.01 µM | > 100 µM | < 0.01 µM | > 100 µM | < 0.01 µM | > 54.5 µM | < 0.01 µM | > 100 µM | < 0.01 µM | > 100 µM
CCOc1cc(C(C)(C)C)ccc1C1=N[C@H](c2ccc(Cl)cc2)[C@H](c2ccc(Cl)cc2)N1C(=O)N1CCN(CC#Cc2cccc3c2CN([C@@H]2CCC(=O)NC2=O)C3=O)CC1 | 0.112 µM | 4.33 µM | 2.05 µM | 22.7 µM | 0.1 µM | > 43.2 µM | 1.2 µM | > 100 µM | 3.29 µM | > 100 µM | 2.22 µM | > 100 µM | 2.1 µM | > 58.8 µM | 2.53 µM | 19.2 µM | 1.31 µM | > 100 µM | 0.346 µM | > 100 µM
CN(C)CCC(=O)N1C/C(=C\c2ccc(Cl)c(Cl)c2)C(=O)/C(=C/c2ccc(Cl)c(Cl)c2)C1 | – | 1.86 µM | – | 0.278 µM | – | 1.3 µM | – | 0.653 µM | – | 1.82 µM | – | 0.948 µM | – | 2.13 µM | – | 0.824 µM | – | 0.44 µM | – | 1.73 µM
COCCOC(=O)C1=C(O)c2ccccc2S(=O)(=O)N1C | – | > 100 µM | – | > 100 µM | – | 87.6 µM | – | > 100 µM | – | > 100 µM | – | > 100 µM | – | > 100 µM | – | > 100 µM | – | > 100 µM | – | > 100 µM
C#CC1(O)C(COP(=O)(O)OCC(COP(=O)(O)OCC2OC(n3cc(F)c(=O)[nH]c3=O)CC2O)OCCCCCCCCCCCCCCCCCC)OC(n2ccc(N)nc2=O)C1O (stereo not drawn) | 0.113 µM | – | 0.0765 µM | > 27.7 µM | 0.713 µM | > 55.3 µM | 0.102 µM | 9.45 µM | 7.4 µM | > 100 µM | 0.0933 µM | > 34.1 µM | 0.313 µM | > 57.2 µM | 0.0555 µM | 16.3 µM | < 0.0229 µM | 1.93 µM | 2.16 µM | > 52.8 µM
CN(C)Cc1cc(C(F)(F)F)ccc1C(O)(c1ccccc1)c1ccccc1 | – | 31.1 µM | – | 31.8 µM | – | 21.8 µM | – | 34.3 µM | – | 31 µM | – | 49.6 µM | – | 38.4 µM | – | 50 µM | – | 29.3 µM | – | > 100 µM
O=C(NC(=O)c1c(F)cccc1F)Nc1cccc(Oc2ncc(Cl)cn2)c1 | – | > 100 µM | – | > 100 µM | – | 60.3 µM | – | 77.3 µM | – | > 100 µM | – | > 100 µM | – | > 86.3 µM | – | > 85 µM | – | > 100 µM | – | > 92.1 µM
NC(CSC(c1ccccc1)(c1ccccc1)c1ccccc1)C(=O)NCC(=O)O (stereo not drawn) | 23.4 µM | > 100 µM | 7.66 µM | > 100 µM | 2.95 µM | 27.7 µM | 5.38 µM | > 100 µM | 8.19 µM | > 100 µM | 3.96 µM | 38.4 µM | 8.33 µM | > 100 µM | 6.1 µM | > 100 µM | 4.05 µM | > 100 µM | 3.29 µM | 25.1 µM
